Results published in ChEMBL document CHEMBL5649166, “RIP3 induces apoptosis independent of pronecrotic kinase activity” (Mol Cell, 2014).

How the values were obtained:
[1] = biological target: Mitogen-activated protein kinase 10 (Homo sapiens) (UniProt P53779); experiment: Inhibition of human JNK3 using ATF2 as substrate at 1 uM in presence of 32P-ATP by Hotspot assay relative to control; values are per cent of control
[2] = biological target: Casein kinase II subunit alpha' (Homo sapiens) (UniProt P19784); experiment: Inhibition of human CK2a2 using RRRDDDSDDD as substrate at 1 uM in presence of 32P-ATP by Hotspot assay relative to control; values are per cent of control
[3] = biological target: T1, Discoidin domain-containing receptor 2 (Homo sapiens) (UniProt Q16832); experiment: Inhibition of human DDR2 using KKSRGDYMTMQIG as substrate at 1 uM in presence of 32P-ATP by Hotspot assay relative to control; values are per cent of control
T1 sequence (whole entry): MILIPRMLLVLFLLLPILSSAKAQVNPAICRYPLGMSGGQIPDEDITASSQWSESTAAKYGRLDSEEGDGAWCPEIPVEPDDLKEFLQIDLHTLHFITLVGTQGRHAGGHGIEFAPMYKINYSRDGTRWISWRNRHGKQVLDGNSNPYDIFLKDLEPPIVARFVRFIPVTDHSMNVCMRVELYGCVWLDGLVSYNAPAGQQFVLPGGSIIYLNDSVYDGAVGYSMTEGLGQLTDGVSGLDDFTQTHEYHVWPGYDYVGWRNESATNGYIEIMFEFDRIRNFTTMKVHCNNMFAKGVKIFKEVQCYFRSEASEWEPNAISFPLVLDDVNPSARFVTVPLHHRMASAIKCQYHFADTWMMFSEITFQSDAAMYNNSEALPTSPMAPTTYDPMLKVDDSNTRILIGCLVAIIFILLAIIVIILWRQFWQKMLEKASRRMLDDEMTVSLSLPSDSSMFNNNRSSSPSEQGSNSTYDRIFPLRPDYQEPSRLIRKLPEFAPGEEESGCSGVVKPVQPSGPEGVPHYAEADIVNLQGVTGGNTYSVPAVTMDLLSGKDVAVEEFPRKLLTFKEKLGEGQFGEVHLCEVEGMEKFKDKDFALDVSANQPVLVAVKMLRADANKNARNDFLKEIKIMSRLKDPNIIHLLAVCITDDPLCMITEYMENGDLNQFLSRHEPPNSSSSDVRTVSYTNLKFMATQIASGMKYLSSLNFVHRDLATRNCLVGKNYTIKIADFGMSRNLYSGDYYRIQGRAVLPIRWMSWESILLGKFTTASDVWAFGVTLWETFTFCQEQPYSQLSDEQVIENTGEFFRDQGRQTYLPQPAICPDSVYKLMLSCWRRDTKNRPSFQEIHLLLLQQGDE

[4] = biological target: T2, cGMP-dependent protein kinase 2 (Homo sapiens) (UniProt Q13237); experiment: Inhibition of human PKG2/PRKG2 using LRRASLG as substrate at 1 uM in presence of 32P-ATP by Hotspot assay relative to control; values are per cent of control
T2 sequence (whole entry): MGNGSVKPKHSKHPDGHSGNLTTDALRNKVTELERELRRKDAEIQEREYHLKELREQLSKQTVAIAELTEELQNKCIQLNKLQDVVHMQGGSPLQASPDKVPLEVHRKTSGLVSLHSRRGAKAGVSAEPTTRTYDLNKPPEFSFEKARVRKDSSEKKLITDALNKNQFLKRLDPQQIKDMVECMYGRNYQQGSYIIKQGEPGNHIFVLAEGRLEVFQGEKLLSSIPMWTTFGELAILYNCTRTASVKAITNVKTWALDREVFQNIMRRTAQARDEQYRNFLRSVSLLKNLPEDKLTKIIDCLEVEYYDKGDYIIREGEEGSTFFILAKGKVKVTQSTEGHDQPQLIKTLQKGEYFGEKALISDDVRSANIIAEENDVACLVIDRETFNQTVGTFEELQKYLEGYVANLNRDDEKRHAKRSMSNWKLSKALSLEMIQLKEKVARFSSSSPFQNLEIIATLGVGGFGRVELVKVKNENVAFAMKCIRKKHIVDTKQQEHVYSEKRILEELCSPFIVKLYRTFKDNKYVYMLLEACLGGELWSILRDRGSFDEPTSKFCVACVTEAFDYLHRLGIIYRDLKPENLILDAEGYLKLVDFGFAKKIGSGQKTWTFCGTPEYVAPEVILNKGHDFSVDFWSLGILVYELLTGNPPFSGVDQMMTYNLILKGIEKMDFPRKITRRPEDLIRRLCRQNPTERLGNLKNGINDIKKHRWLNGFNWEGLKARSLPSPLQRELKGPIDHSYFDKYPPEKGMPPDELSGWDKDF

[5] = biological target: Phosphorylase b kinase gamma catalytic chain, skeletal muscle/heart isoform (Homo sapiens) (UniProt Q16816); experiment: Inhibition of human PHKg1 using KKLNRTLSFAEPG as substrate at 1 uM in presence of 32P-ATP by Hotspot assay relative to control; values are per cent of control
[6] = biological target: Tyrosine-protein kinase Lck (Homo sapiens) (UniProt P06239); experiment: Inhibition of human LCK using poly[Glu:Tyr] (4:1) as substrate at 1 uM in presence of 32P-ATP by Hotspot assay relative to control; values are per cent of control
[7] = biological target: T3, Megakaryocyte-associated tyrosine-protein kinase (Homo sapiens) (UniProt P42679); experiment: Inhibition of human CTK/MATK using poly[Glu:Tyr] (4:1) as substrate at 1 uM in presence of 32P-ATP by Hotspot assay relative to control; values are per cent of control
T3 sequence (whole entry): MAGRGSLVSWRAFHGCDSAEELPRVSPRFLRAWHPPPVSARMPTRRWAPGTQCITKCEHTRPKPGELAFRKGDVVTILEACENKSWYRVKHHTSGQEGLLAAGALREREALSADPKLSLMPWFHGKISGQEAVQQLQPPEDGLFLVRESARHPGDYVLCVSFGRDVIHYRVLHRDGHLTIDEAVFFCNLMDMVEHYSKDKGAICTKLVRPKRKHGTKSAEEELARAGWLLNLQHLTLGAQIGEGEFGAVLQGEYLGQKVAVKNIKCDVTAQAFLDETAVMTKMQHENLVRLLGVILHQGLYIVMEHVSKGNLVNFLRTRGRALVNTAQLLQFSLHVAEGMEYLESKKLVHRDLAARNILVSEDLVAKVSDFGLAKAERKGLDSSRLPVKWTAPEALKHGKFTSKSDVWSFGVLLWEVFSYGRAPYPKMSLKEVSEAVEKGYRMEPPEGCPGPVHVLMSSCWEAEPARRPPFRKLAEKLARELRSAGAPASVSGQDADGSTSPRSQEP

[8] = biological target: Serine/threonine-protein kinase MARK1 (Homo sapiens) (UniProt Q9P0L2); experiment: Inhibition of human MARK1 using KKKVSRSGLYRSPSMPENLNRPR as substrate at 1 uM in presence of 32P-ATP by Hotspot assay relative to control; values are per cent of control
Serine/threonine-protein kinase MARK1 (Homo sapiens), sequence (Q9P0L2 whole entry, looked up): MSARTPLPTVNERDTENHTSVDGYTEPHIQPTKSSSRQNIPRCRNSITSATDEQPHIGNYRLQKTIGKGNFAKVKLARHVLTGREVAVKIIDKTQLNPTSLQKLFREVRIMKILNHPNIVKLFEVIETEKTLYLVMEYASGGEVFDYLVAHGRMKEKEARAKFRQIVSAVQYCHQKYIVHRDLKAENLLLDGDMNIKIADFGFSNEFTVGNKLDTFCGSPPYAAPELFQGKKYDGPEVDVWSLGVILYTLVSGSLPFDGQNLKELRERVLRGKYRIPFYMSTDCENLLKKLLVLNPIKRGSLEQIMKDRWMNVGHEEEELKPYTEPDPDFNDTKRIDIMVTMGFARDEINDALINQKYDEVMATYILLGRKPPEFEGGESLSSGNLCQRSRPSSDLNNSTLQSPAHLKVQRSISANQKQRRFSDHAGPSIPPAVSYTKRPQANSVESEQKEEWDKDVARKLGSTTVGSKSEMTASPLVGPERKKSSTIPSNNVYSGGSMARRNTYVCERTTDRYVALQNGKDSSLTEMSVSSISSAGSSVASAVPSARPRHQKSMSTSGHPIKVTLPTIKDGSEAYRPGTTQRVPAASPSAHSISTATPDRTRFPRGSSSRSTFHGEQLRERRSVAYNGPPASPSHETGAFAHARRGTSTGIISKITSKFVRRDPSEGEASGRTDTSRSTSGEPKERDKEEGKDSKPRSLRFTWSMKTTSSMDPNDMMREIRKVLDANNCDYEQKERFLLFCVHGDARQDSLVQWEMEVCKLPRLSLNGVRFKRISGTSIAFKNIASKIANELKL

Phosphorylase b kinase gamma catalytic chain, skeletal muscle/heart isoform (Homo sapiens), sequence (Q16816 whole entry, looked up, canonical isoform): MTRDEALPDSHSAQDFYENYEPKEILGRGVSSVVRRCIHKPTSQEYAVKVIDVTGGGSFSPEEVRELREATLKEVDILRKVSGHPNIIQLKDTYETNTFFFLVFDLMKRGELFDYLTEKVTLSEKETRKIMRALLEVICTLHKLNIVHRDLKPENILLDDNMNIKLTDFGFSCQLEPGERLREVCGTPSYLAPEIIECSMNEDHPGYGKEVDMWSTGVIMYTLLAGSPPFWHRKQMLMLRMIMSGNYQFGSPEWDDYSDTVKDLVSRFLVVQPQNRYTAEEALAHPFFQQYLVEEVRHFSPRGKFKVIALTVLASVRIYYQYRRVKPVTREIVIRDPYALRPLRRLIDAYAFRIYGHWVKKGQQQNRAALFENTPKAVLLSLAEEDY
Mitogen-activated protein kinase 10 (Homo sapiens), sequence (P53779 whole entry): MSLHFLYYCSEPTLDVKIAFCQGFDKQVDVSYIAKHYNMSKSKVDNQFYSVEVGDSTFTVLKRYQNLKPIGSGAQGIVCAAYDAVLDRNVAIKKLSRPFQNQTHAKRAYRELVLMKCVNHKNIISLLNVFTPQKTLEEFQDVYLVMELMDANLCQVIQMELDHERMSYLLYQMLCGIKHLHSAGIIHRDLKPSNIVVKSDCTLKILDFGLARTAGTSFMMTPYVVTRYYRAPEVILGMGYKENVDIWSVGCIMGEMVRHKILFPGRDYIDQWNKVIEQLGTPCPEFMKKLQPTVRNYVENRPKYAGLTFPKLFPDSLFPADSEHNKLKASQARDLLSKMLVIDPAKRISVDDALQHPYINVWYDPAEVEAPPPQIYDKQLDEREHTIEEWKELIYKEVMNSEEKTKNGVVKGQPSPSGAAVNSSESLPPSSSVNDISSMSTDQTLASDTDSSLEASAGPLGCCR
Casein kinase II subunit alpha' (Homo sapiens), sequence (P19784 whole entry, looked up, the tested form may be a part): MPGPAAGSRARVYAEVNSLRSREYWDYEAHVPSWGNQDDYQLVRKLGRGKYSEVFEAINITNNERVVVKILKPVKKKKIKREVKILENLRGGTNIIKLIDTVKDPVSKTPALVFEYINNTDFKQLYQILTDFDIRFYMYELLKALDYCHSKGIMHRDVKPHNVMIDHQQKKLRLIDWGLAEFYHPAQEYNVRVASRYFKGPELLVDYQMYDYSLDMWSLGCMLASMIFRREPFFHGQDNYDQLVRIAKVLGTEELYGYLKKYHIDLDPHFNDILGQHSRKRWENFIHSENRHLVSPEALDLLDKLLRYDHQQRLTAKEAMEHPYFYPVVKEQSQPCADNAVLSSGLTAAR
Tyrosine-protein kinase Lck (Homo sapiens), sequence (P06239 2-509 limits assumed): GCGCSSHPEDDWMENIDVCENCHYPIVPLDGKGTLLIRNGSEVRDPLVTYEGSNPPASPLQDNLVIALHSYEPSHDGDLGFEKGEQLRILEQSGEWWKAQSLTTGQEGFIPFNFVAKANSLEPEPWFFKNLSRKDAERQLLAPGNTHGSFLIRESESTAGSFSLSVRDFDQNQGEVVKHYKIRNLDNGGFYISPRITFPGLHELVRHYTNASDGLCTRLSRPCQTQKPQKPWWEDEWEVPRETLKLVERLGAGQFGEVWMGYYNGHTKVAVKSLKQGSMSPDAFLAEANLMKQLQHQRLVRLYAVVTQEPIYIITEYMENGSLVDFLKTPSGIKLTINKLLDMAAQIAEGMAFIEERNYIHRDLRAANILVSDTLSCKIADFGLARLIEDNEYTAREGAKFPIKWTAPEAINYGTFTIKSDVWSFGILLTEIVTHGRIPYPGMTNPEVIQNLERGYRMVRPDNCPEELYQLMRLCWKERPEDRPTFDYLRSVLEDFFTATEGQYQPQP

SMILES	residual activity [1] [%]	residual activity [2] [%]	residual activity [3] [%]	residual activity [4] [%]	residual activity [5] [%]	residual activity [6] [%]	residual activity [7] [%]	residual activity [8] [%]
Cc1cc(-c2cnc(N)c3c(-c4ccc5scnc5c4)csc23)n(C)n1	85.9	88.9	88.8	70.1	96.8	17.3	79.2	103
CNC(=O)c1ccc2c(c1)ncn2-c1ccc(CC(=O)OC(C)(C)C)cc1	104	96.3	98.7	96.7	101	13.1	93.7	96.2
CC(C)S(=O)(=O)c1ccc2nccc(Nc3ccc4scnc4c3)c2c1	106	97.1	102	94.6	94.8	39.4	98.5	96.3
